Source: patent US8940722B2, “Compounds for modulation of orphan nuclear receptor RAR-related orphan receptor-gamma (RORγ, NR1F3) activity and for the treatment of chronic inflammatory and autoimmune disease” (Phenex Pharmaceuticals AG, priority 2010, dated 2015)

Tests used:
[1] = tested on: plasma cytokines in C57/bl6 mice; assay: In vivo assay for suppression of IL-17 (MOG/CFA/PTX immunisation); design: species or system mouse; conditions: 2×10 mg/(kg×day) i.p., MOG peptide+CFA+PTX immunised mice
Excerpt: All animal models that mimic human autoimmune disease suffer from the issue that they are long lasting, require substantial amounts of exploratory drugs and do mostly not allow for monitoring IL-17 production in a simple setup. We therefore developed an in vivo assay based on an immunisation protocol that stems from a typical mouse Experimental Autoimmune Encephalomyelitis (EAE) model. Such EAE models employ the administration of certain autoimmunogenic peptides derived from i.e. Myelin Oligodendrocyte Glycoprotein (MOG) in conjunction with co-administration of a strong immune stimulants such as Complete Freund's Adjuvans (CFA) and a booster for T-cell activation such as Pertussis Toxin (PTX) to induce an autoimmune response. IL-17 producing Th17 cells are elevated under these conditions and about 14-21 days after the immunisation macroscopic signs of CNS inflammation such as impairment of movement become visible.
This immunisation scheme, while disturbing the regular development of macroscopic EAE symptoms in mice, allows for the monitoring of proinflammatory cytokines in plasma, specifically for IL-17, IL-2 and Interferon gamma IFNγ. […]

[2] = biological target: T1, RORγ ligand binding domain (LBD) (Homo sapiens, UniProt P51449); assay: TR-FRET Activity Assay (RORγ-LBD / coactivator peptide interaction); assay type: biochemical; conditions: Table 2; read-out: RORγ activity in the TR-FRET Activity Assay (IC50 FRET), Group
T1 construct: made in house; host or cells: E. coli BL-21 (BL3), vector pDEST15
T1 sequence (P51449 269-508 limits assumed): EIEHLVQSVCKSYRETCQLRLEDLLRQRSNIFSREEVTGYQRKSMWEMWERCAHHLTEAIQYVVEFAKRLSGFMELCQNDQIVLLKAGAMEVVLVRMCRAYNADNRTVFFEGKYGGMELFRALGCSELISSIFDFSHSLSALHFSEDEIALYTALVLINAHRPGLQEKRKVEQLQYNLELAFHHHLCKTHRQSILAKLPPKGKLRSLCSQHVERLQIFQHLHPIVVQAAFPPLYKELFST
Excerpt: This method measures the ability of putative ligands to modulate the interaction between the purified bacterial expressed RORγ ligand binding domain (LBD) and synthetic N-terminally biotinylated peptides which are derived from nuclear receptor coactivator proteins such as but not limited to SRC1 (NcoA1), SRC2 (NcoA2, TIF2), SRC3 (NcoA3), PGC1α, PGC1β, CBP, GRIP1, TRAP220, RIP140.
The ligand-binding domain (LBD) of RORγ was expressed as fusion protein with GST in […] cells using the vector pDEST15. Cells were lysed by lysozyme-treatment and sonication, and the fusion proteins purified over glutathione sepharose (Pharmacia) according to the manufacturers instructions. For screening of compounds for their influence on the RORγ-peptide interaction, the LANCE technology (Perkin Elmer) was applied. This method relies on the binding dependent energy transfer from a donor to an acceptor fluorophor attached to the binding partner of interest. For ease of handling and reduction of background from compound fluorescence LANCE technology makes use of generic fluorophore labels and time resolved detection assays were done in a final volume of 25 μL in a 384 well plate, in a Tris-based buffer system (20 mM Tris-HCl pH6.8; 60 mM KCl, 1 mM DTT; 5 mM MgCl2; 35 ng/μL BSA), containing 20-60 ng/well recombinantly expressed RORγ-LBD fused to GST, 200-600 nM N-terminally biotinylated peptide, 200 ng/well Streptavidin-xIAPC conjugate (Prozyme) and 6-10 ng/well Eu W1024—antiGST (Perkin Elmer). DMSO content of the samples was kept at 1%.
After generation of the Tris-based buffer system, the potentially RORγ modulating ligands were diluted. […] The LANCE signal was detected by a Perkin Elmer EnVision™ Multilabel Counter. The results were visualized by plotting the ratio between the emitted light at 665 nm and 615 nm. […] Ligands that promote the complex formation induce a concentration-dependent increase in time-resolved fluorescent signal.
To assess the antagonistic potential of the compounds, IC50 values were determined using a Ligand Sensing Assay based on Time-resolved Fluorescence Energy Transfer (TR-FRET) as described above. The normalised TR-FRET assay values, using the following equation: 1000*665 nm measurement value/615 nm measurement value, were transferred to the program GraphPad Prism to generate graphs and dose response curves using the following equation: • Equation: Sigmoidal dose-response (variable slope) Y=Bottom+(Top−Bottom)/(1+10^((Log EC50−X)*HillSlope))
This is identical to the “four parameter logistic equation”. The IC50 values are calculated using this equation.

activated human PBMCs = assay: PBMC stimulation and cytokine release assay; assay type: cell-based
Experimental: Cryopreserved human PBMCs were purchased from Cellular Technology Ltd. thawed and counted as outlined in the supplier's protocol using CTL-anti-Aggregate-Wash-Supplement. Cells were washed and plated in CTL's serum free medium to −10^5 cells/well in anti-human CD3 coated 96 well T-cell activation plates (BD; Cat. No: 354725) together with anti-human CD28 antibody (BD; Cat. No: 555725) to a final concentration of 2 μg/mL. Samples were either treated with vehicle (0.1%) or small chemical molecules of the indicated concentrations.
For end point determination of cytokine production the cells were incubated for 72 h at 37° C. and 5% CO2. Supernatants were harvested and stored frozen at −80° C. until further processing. The cells were assayed for viability by incubation for 15 min with fluoresceindiacetate (5 μg/mL in PBS) and subsequent measurement of fluorescein (485 nm/535 nm).
Cytokine concentrations in the supernatants were determined in bead-based multiplex ELISA assays using Procarta Cytokine Assay Kits (Panomics) following the manufacturers instructions. The samples were read in a Luminex100 device and analysed with the IS Luminex 2.3 Software using a 5 parameter non-linear regression curve-fitting model.

Row | Compound | IC50 [2] | further results
1 | O=S(=O)(c1cccc2cccnc12)N1Cc2ccccc2COCC1Cc1ccccc1 (stereo not shown) [1/8] | < 0.5 µM | plasma IFNγ levels (FIG. 1) [1]: increase; plasma IL-17 levels (FIG. 1) [1]: nearly completely reduced
2 | O=S(=O)(c1cccc2cccnc12)N1Cc2ccccc2COCC1CC1CCCC1 (stereo not shown) [1/44] | < 0.5 µM | effects on Th17-cytokine production in activated human PBMCs (FIG. 2) (activated human PBMCs): selective inhibitory effects
3 | O=S(=O)(c1cccc2cccnc12)N1Cc2ccccc2COC[C@H]1COCC1CC1 [16/4] | 0.5 to 2 µM | effects on Th17-cytokine production in activated human PBMCs (FIG. 2) (activated human PBMCs): selective inhibitory effects
4 | COc1ccccc1S(=O)(=O)N1Cc2ccccc2COCC1Cc1ccccc1 (stereo not shown) [Preparative Example 1, 4-Benzyl-5-(2-methoxyphenylsulfonyl)-3,4,5,6-tetrahydro-1H-benzo[f][1,4]-oxazocine] | < 0.5 µM | effects on Th17-cytokine production in activated human PBMCs (FIG. 2) (activated human PBMCs): selective inhibitory effects
5 | O=S(=O)(c1cccc2cccnc12)N1Cc2ccccc2COC[C@H]1CC1CC1 [Preparative Example 20, (R)-4-(Cyclopropylmethyl)-5-(quinolin-8-ylsulfonyl)-3,4,5,6-tetrahydro-1H-benzo[f][1,4]oxazocine] | < 0.5 µM | 
6 | Cc1nnc(C[C@@H]2COCc3ccccc3CN2S(=O)(=O)c2cccc3cccnc23)o1 [Preparative Example 27, (R)-4-((5-Methyl-1,3,4-oxadiazol-2-yl)methyl)-5-(quinolin-8-ylsulfonyl)-3,4,5,6-tetrahydro-1H-benzo[f][1,4]oxazocine] | > 2 µM | 
7 | COc1ccccc1S(=O)(=O)N1Cc2ccccc2OCCC1Cc1ccccc1 (stereo not shown) [compound 4] | 0.5 to 2 µM | 
8 | O=S(=O)(c1cccc2cccnc12)N1Cc2cccnc2COC[C@H]1Cc1ccccc1 [compound 6] | < 0.5 µM | 
9 | CN1Cc2ccccc2CN(S(=O)(=O)c2cccc3cccnc23)[C@H](Cc2ccccc2)C1=O [compound 9] | > 2 µM | 
10 | O=S(=O)(c1cc(F)ccc1N1CCOCC1)N1Cc2ccccc2COCC1Cc1ccccc1 (stereo not shown) [compound 12] | > 2 µM | 
11 | COc1ccccc1S(=O)(=O)N1Cc2ccccc2CS(=O)(=O)CC1Cc1ccccc1 (stereo not shown) [compound 29] | > 2 µM | 

Further lines, with some results ahead:

Row | IC50 [2] | Compound | further results
12 | 0.5 to 2 µM | O=S(=O)(c1cccc2cccnc12)N1Cc2ccccc2COC[C@H]1COCC1CCC1 [16/3] | effects on Th17-cytokine production in activated human PBMCs (FIG. 2) (activated human PBMCs): selective inhibitory effects
13 | > 2 µM | CC(C)(O)C[C@@H]1COCc2ccccc2CN1S(=O)(=O)c1cccc2cccnc12 [Preparative Example 22, (R)-2-Methyl-1-(5-(quinolin-8-ylsulfonyl)-3,4,5,6-tetrahydro-1H-benzo[f][1,4]oxazocin-4-yl)propan-2-ol] | 
14 | > 2 µM | CN(C)C(=O)C[C@@H]1COCc2ccccc2CN1S(=O)(=O)c1cccc2cccnc12 [Preparative Example 26, (R)—N,N-Dimethyl-2-(5-(quinolin-8-ylsulfonyl)-3,4,5,6-tetrahydro-1H-benzo[f][1,4]oxazocin-4-yl)acetamide] | 
15 | > 2 µM | O=S(=O)(c1ccccc1OC(F)(F)F)N1Cc2nnc(C(F)(F)F)n2CCC[C@H]1Cc1ccccc1 [Preparative Example 31, (S)-8-Benzyl-9-((2-(trifluoromethoxy)phenyl)sulfonyl)-3-(trifluoromethyl)-5,6,7,8,9,10-hexahydro-[1,2,4]triazolo[4,3-a][1,4]diazocine] | 
16 | > 2 µM | COc1ccccc1S(=O)(=O)N1Cc2ccccc2COCC1Cc1ccc(Br)cc1 (stereo not shown) [compound 3] | 
17 | 0.5 to 2 µM | O=S(=O)(c1cccc2cccnc12)N1Cc2ccccc2COC[C@H]1Cc1cccnc1 [compound 7] | 
18 | > 2 µM | O=S(=O)(c1cccc2cccnc12)N1Cc2cccc(O)c2COCC1Cc1ccccc1 (stereo not shown) [compound 13] | 
19 | 0.5 to 2 µM | O=S(=O)(c1cccc2cccnc12)N1Cc2ccccc2CCCC1Cc1ccccc1 (stereo not shown) [compound 30] | 
